Consider 32 molecules from ChEMBL document CHEMBL1131665, “Rapid synthesis of RGD mimetics with isoxazoline scaffolds on solid phase: identification of alphavbeta3 antagonists lead compounds” (Bioorg Med Chem Lett, 1999).

Holding throughout (assay type): functional
In assay [1] the target is Integrin alpha-V/beta-3 (Homo sapiens, UniProt P05106+P06756). Kind of assay: Antagonistic activity against vitronectin receptor.
In assay [2] the target is Integrin alpha-IIb/beta-3 (Homo sapiens, UniProt P05106+P08514). Kind of assay: Antagonistic activity against fibrinogen receptor.
A short description of assay [3]: Antagonistic activity against Vitronectin receptor protein ( alpha v beta 3 ) by ELISA assay. (In an ELISA, binding on a coated surface is turned into a signal by an enzyme label.)

Where only a bound is given, the exact number is not on record here.

Chain of Integrin alpha-IIb/beta-3 (P05106 27-788 limits assumed): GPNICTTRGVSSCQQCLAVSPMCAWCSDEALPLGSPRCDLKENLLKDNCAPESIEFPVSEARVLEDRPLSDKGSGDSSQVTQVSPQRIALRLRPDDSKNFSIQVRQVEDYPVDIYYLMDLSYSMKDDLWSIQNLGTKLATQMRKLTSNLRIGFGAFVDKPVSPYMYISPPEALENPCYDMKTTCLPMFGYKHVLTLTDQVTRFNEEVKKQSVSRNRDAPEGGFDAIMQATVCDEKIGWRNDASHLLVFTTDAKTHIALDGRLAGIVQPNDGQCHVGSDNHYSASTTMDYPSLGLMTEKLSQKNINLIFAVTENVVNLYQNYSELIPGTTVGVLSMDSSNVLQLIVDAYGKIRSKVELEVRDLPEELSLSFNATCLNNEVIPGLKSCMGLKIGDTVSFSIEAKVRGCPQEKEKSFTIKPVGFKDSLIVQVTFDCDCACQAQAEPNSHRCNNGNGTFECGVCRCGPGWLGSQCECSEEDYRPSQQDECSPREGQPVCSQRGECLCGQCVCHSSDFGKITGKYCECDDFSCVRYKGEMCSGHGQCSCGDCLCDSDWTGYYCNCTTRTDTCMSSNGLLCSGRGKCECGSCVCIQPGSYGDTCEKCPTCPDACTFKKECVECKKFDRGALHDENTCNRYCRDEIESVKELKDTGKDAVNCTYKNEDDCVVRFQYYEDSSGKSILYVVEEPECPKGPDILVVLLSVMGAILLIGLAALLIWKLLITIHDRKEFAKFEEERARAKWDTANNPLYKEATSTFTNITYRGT
Chain of Integrin alpha-IIb/beta-3 (P08514 32-887 limits assumed): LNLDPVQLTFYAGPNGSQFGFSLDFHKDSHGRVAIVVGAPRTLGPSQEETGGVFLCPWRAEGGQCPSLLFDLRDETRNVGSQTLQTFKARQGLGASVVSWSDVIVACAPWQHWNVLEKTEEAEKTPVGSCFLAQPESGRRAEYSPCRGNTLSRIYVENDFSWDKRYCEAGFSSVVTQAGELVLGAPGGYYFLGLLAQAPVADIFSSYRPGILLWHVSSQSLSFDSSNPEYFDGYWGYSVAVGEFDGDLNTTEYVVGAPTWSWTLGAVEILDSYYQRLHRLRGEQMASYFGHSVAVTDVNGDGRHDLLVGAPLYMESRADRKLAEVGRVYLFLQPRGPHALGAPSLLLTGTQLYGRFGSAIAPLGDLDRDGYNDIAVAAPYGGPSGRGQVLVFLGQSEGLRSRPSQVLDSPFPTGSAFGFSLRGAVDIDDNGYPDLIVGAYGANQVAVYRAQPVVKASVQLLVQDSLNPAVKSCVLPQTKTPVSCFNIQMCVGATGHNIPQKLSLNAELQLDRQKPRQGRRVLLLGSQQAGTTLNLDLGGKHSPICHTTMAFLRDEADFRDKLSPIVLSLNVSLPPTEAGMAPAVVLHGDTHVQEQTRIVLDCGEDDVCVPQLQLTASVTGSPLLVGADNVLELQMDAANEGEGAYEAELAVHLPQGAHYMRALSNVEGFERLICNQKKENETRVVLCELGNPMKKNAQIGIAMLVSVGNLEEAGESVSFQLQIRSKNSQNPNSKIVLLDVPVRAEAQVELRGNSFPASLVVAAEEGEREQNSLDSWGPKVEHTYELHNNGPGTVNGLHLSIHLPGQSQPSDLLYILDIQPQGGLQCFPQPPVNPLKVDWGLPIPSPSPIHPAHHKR
Chain of Integrin alpha-IIb/beta-3 (P08514 891-1039 limits assumed): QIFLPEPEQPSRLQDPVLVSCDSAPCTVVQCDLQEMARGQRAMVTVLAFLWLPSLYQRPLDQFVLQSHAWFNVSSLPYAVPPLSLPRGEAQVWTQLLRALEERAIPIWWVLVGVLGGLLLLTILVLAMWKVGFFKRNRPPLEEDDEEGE
Chain of Integrin alpha-V/beta-3 (P05106 27-788 limits assumed): as the sequence (P05106 27-788 limits assumed) above
Chain of Integrin alpha-V/beta-3 (P06756 31-889 limits assumed): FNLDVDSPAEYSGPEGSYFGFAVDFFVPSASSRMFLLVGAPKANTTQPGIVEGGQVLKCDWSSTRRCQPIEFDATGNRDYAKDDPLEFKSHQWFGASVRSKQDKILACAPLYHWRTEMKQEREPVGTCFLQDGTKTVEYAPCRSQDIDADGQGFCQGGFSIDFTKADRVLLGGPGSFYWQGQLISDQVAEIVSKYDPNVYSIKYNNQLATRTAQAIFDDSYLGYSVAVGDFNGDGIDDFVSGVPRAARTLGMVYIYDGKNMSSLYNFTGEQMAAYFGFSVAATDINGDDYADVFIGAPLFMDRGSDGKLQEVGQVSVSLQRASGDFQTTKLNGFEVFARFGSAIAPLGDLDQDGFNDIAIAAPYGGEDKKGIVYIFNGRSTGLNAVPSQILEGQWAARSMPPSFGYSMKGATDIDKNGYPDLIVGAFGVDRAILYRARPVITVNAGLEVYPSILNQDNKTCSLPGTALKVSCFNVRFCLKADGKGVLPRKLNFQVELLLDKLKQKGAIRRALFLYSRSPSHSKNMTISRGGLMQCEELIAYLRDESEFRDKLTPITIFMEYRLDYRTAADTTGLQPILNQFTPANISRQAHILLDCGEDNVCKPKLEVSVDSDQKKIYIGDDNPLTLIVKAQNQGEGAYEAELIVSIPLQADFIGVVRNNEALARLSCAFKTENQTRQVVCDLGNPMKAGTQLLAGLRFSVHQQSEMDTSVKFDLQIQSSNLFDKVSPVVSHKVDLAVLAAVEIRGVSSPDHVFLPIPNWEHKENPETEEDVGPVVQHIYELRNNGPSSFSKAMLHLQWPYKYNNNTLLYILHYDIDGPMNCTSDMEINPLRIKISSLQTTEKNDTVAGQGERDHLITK
Chain of Integrin alpha-V/beta-3 (P06756 891-1048 limits assumed): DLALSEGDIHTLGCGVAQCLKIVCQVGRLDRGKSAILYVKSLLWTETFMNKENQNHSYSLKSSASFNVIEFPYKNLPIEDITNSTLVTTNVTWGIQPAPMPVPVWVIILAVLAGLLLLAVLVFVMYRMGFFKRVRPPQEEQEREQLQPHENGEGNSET

One may read the IC50 as the concentration needed to halve the response being measured. A low value points to inhibition by little substance. `N=C(N)NCCCCC1CC(C(=O)NC[C@H](NS(=O)(=O)c2ccc(F)cc2)C(=O)O)=NO1` (stereo partly specified): the IC50 came to 0.015 µM in assay [1] and 1.3 µM in assay [2].
For `Cn1ccc(S(=O)(=O)N[C@@H](CNC(=O)C2=NOC(CCCCN=C(N)N)C2)C(=O)O)n1` (stereo partly specified) the same measures were 0.096 µM and 3.6 µM.
On the same counts, the results for `N=C(N)NCCCCC1CC(C(=O)NC[C@H](NS(=O)(=O)c2cc(Cl)sc2Cl)C(=O)O)=NO1` (stereo partly specified) are 0.024 µM and 1.9 µM.
For `N=C(N)NCCC1=NOC(C(=O)NC[C@H](NC(=O)OCc2ccccc2)C(=O)O)C1` (stereo partly specified) the same measures were 2.6 µM and greater than 100 µM.
Consider `N=C(N)NCCCCCC1=NOC(C(=O)NC[C@H](NC(=O)OCc2ccccc2)C(=O)O)C1` (stereo partly specified), for which the IC50 in assay [1] came out at 0.71 µM; in assay [2], 13 µM.
On the same counts, the results for `N=C(N)NCCCCC1CC(C(=O)NC[C@H](NS(=O)(=O)c2cccs2)C(=O)O)=NO1` (stereo partly specified) are 0.023 µM and 0.36 µM.
On the same counts, the results for `N=C(N)NCCCCCC1=NOC(CC(=O)NC[C@H](NC(=O)OCc2ccccc2)C(=O)O)C1` (stereo partly specified) are 0.47 µM and 1.5 µM.
The molecule `N=C(N)NCCCCC1CC(C(=O)NC[C@H](NC(=O)OCc2ccccc2)C(=O)O)=NO1` (stereo partly specified) showed an IC50 in assay [1] of 0.023 µM.
For `N=C(N)NCCCCC1=NOC(CC(=O)NC[C@H](NC(=O)OCc2ccccc2)C(=O)O)C1` (stereo partly specified), the IC50 in assay [1] was determined as 0.18 µM; in assay [2] it was 0.8 µM.
For `N=C(N)NCC1CC(CCC(=O)NC[C@H](NC(=O)OCc2ccccc2)C(=O)O)=NO1` (stereo partly specified), the values for the IC50 in assay [1] and in assay [2] were 0.31 µM and greater than 100 µM, respectively.
On the same counts, the results for `N=C(N)NCCCCC1=NOC(CCC(=O)NC[C@H](NC(=O)OCc2ccccc2)C(=O)O)C1` (stereo partly specified) are 0.3 µM and 3.6 µM.
As for `Cc1noc(C)c1S(=O)(=O)N[C@@H](CNC(=O)C1=NOC(CCCCN=C(N)N)C1)C(=O)O` (stereo partly specified), the IC50 is 0.014 µM in assay [1] and 0.85 µM in assay [2].
On the same counts, the results for `N=C(N)NCCC1=NOC(CC(=O)NC[C@H](NC(=O)OCc2ccccc2)C(=O)O)C1` (stereo partly specified) are 0.9 µM and 12 µM.
As to `N=C(N)NCCCC1CC(C(=O)NC[C@H](NC(=O)OCc2ccccc2)C(=O)O)=NO1` (stereo partly specified), the IC50 in assay [1] came to 0.14 µM; in assay [2] it was 53 µM.
On the same counts, the results for `N=C(N)NCCCCC1CC(C(=O)NC[C@H](NS(=O)(=O)c2ccc([N+](=O)[O-])cc2)C(=O)O)=NO1` (stereo partly specified) are 0.14 µM and 43 µM.
`N=C(N)NCCCCC1CC(C(=O)NC[C@H](NS(=O)(=O)c2ccccc2)C(=O)O)=NO1` (stereo partly specified): the IC50 in assay [1] came out at 0.011 µM; in assay [2], 0.78 µM.
`N=C(N)NCCCCC1=NOC(C(=O)NC[C@H](NC(=O)OCc2ccccc2)C(=O)O)C1` (stereo partly specified): the IC50 turned out to be 0.081 µM in assay [3] and 55 µM in assay [2].
Molecule `N=C(N)NCCCC1=NOC(CCC(=O)NC[C@H](NC(=O)OCc2ccccc2)C(=O)O)C1` (stereo partly specified) registered an IC50 in assay [1] of 0.1 µM.
As for `COc1ccc(S(=O)(=O)N[C@@H](CNC(=O)C2=NOC(CCCCN=C(N)N)C2)C(=O)O)cc1` (stereo partly specified), the IC50 in assay [1] turned out to be 0.012 µM; in assay [2] it was 0.46 µM.
For `Cc1cc(C)c(S(=O)(=O)N[C@@H](CNC(=O)C2=NOC(CCCCN=C(N)N)C2)C(=O)O)c(C)c1` (stereo partly specified) the same measures were 0.0007 µM and 0.34 µM.
On the same counts, the results for `N=C(N)NCCCCC1CC(C(=O)NC[C@H](NS(=O)(=O)c2ccccc2Br)C(=O)O)=NO1` (stereo partly specified) are 0.004 µM and 0.17 µM.
For `Cc1cn(C)[n+](Cl)c1S(=O)(=O)N[C@@H](CNC(=O)C1=NOC(CCCCN=C(N)N)C1)C(=O)[O-]` (stereo partly specified) the same measures were 0.002 µM and 0.22 µM.
As to `CN(C)c1cccc2c1ccc[n+]2S(=O)(=O)N[C@@H](CNC(=O)C1=NOC(CCCCN=C(N)N)C1)C(=O)[O-]` (stereo partly specified), the IC50 in assay [1] is 0.007 µM; in assay [2], 7.9 µM.
On the same counts, the results for `CC(C)(C)c1ccc(S(=O)(=O)N[C@@H](CNC(=O)C2=NOC(CCCCNC(=N)N)C2)C(=O)O)cc1` (stereo partly specified) are 0.036 µM and 47 µM.
For `N=C(N)NCCCCC1CC(C(=O)NC[C@H](NS(=O)(=O)c2cccc3ccccc23)C(=O)O)=NO1` (stereo partly specified) the same measures were 0.016 µM and 3.5 µM.
In assay [1], `N=C(N)NCCC1CC(C(=O)NC[C@H](NC(=O)OCc2ccccc2)C(=O)O)=NO1` (stereo partly specified) had an IC50 of 0.066 µM.
As for `N=C(N)NCCCC1=NOC(CC(=O)NC[C@H](NC(=O)OCc2ccccc2)C(=O)O)C1` (stereo partly specified), the IC50 in assay [1] came out at 0.072 µM; in assay [2] it was 12 µM.
For `N=C(N)NCCCC1=NOC(C(=O)NC[C@H](NC(=O)OCc2ccccc2)C(=O)O)C1` (stereo partly specified) the same measures were 0.11 µM and greater than 100 µM.
Consider `N=C(N)NCCCCC1CC(C(=O)NC[C@H](NS(=O)(=O)c2ccc(-c3ccccn3)s2)C(=O)O)=NO1` (stereo partly specified), for which the figures for the IC50 in assay [1] and in assay [2] were 0.008 µM and 0.69 µM, respectively.
For `N=C(N)NCCC1=NOC(CCC(=O)NC[C@H](NC(=O)OCc2ccccc2)C(=O)O)C1` (stereo partly specified) the same measures were 0.48 µM and 23 µM.
Turning to `N=C(N)NCCCCC1CC(C(=O)NC[C@H](NS(=O)(=O)c2ccc(Cl)cc2)C(=O)O)=NO1` (stereo partly specified), the half-maximal inhibitory concentration (IC50) in assay [1] was determined as 0.012 µM; in assay [2], 2.6 µM.
For `N=C(N)NCCC1CC(CCC(=O)NC[C@H](NC(=O)OCc2ccccc2)C(=O)O)=NO1` (stereo partly specified) the same measures were 0.087 µM and 17 µM.
